According to ChEMBL document CHEMBL1137926, “S-(2-(acylamino)phenyl) 2,2-dimethylpropanethioates as CETP inhibitors” (Bioorg Med Chem Lett, 2004):

target: T1, Cholesteryl ester transfer protein (Homo sapiens, UniProt P11597); test: In vitro inhibition of CETP activity was assessed by measuring the rate of [3H]- cholesteryl ester transfer from HDL to apoprotein B-containing lipoproteins in human plasma; assay type: cell-free
T1 sequence (P11597 whole entry): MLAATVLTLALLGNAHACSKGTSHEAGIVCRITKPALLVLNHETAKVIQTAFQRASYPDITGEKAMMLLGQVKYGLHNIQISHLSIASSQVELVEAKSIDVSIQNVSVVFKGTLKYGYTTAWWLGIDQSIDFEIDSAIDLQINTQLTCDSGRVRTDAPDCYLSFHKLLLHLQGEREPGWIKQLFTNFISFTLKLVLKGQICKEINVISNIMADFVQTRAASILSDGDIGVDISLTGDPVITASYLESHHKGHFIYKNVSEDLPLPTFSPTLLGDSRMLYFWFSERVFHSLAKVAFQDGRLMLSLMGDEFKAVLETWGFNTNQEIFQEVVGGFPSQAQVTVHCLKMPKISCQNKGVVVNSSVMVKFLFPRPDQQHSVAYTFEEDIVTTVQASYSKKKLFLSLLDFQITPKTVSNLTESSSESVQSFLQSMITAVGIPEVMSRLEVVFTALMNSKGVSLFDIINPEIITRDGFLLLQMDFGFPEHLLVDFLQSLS

SMILES | IC50 [µM]
CC(C)(C)C(=O)Sc1cc(F)ccc1NC(=O)C1(C)CCCCC1 | 78
COc1ccc(SC(=O)C(C)(C)C)c(NC(=O)C2(C)CCCCC2)c1 | > 300
CC(C)(C)C(=O)Sc1ccc(C#N)cc1NC(=O)C1(C)CCCCC1 | 102
CC(C)(C)C(=O)Sc1cc(F)cc(F)c1NC(=O)C1(C)CCCCC1 | > 300
CC(C)(C)C(=O)Sc1c(F)cccc1NC(=O)C1(C)CCCCC1 | > 300
CC(C)(C)C(=O)Sc1ccc(F)cc1NC(=O)C1(C)CCCCC1 | 70

Other lines, results leading:

IC50 [µM] | SMILES
13 | CC(C)CCC1(C(=O)Nc2cc(Cl)ccc2SC(=O)C(C)(C)C)CCCCC1
10 | CC(C)CCC1(C(=O)Nc2ccc(Cl)cc2SC(=O)C(C)(C)C)CCCCC1
13 | CC(C)CCC1(C(=O)Nc2cc(C(F)(F)F)ccc2SC(=O)C(C)(C)C)CCCCC1
> 300 | COc1ccc(SC(=O)C(C)(C)C)c(NC(=O)C2(CCC(C)C)CCCCC2)c1
> 300 | Cc1ccc(SC(=O)C(C)(C)C)c(NC(=O)C2(CCC(C)C)CCCCC2)c1
